Experimental data reported in patent US20160032327A1, “PROCESS FOR CULTURING DEINOCOCCUS BACTERIA” (DEINOVE, priority 2012, published 2016).
Read-outs that look alike come from different tables or passages of the source.

Columns and labels:
M36-7D_17 = tested on: M36-7D_17
Excerpt: (§1) And the “Inhibitory Concentration of an oxidizer towards a Deinococcus or a related bacterium” (“ICD”) refers to the minimum concentration of said oxidizer in the culture medium that inhibits or reduces the growth of the Deinococcus. The IC may be easily ascertained for each microorganism or each strain thereof, and for each oxidizer, by implementing test cultures. For example, the strain of interest may be cultivated in several parallel cultures, each of said cultures containing an increased concentration of the oxidizer. After 2 or 3 days, the cultures are observed to measure the microbial growth and thereby to determine the IC.
(§2) Preculture was done for 3 days in CMG 1%. After checking the purity of the culture, cell pellet was washed three times in sterile water and then DO was adjusted to 2.
(§3) Hydrogen peroxide stock solution: H2O2 (30%wt solution, SIGMA ref. 216763, stored at 4° C.)
(§4) Preparation of the H2O2 range:
(§5) Dispense 180 μl of media into culture wells (200 μl into blank wells)
(§6) Add 20 μL of washed cell pellet at an optical density (600 nm) of 2 into well to be inoculated.
(§7) Gently add 50 μL of mineral oil on the well surface to limit evaporation.
(§8) Microplate was incubated for 3 days at 30 or 45° C. according to the optimal growth temperature indicated in the first part. Growth was monitored by an absorbance measure.

M36-7Dwt = tested on: M36-7Dwt
Excerpt: as §1, §2, §3, §4, §5, §6, §7, §8

M36-7D_21 [1] = tested on: M36-7D_21
Excerpt: as §1, §2, §3, §4, §5, §6, §7, §8

[2] = tested on: Deinococcus radiodurans R1
Excerpt: as §1, §2, §3, §4, §5, §6, §7, §8

[3] = tested on: Saccharomyces cerevisiae 2640; details: S. cerevisiae, 30° C., CMG medium
Excerpt: as §1, §2, §3, §4, §5, §6, §7, §8

Escherichia coli K12 = details: E. coli, 30° C., CMG medium
Excerpt: as §1, §2, §3, §4, §5, §6, §7, §8

Zymomonas mobilis DSM424 = details: Z. mobilis, 30° C., CMG medium
Excerpt: as §1, §2, §3, §4, §5, §6, §7, §8

M36-7D_21 [4] = details: no growth after 24 or 96 h on agar plates at 45° C.
Procedure: (§9) Deinococcus geothermalis M36-7D—21 and MX61E—04 were cultivated in 20% starch effluent pH 5 containing 15 mM NH4Cl and 5.30 mM K2HPO4
(§10) 5 ml of the cultures were treated during one hour with different concentration of H2O2 (20, 50,100, 150 and 200 mM) at room temperature or at 45° C.
(§11) The control sample corresponds to untreated sample (0 mM H2O2).
(§12) The control and treated samples were then spread on agar plates containing 10% effluent starch and incubated during 24 and 96 hours at 45° C.
(§13) The inhibitory concentration (IC expressed in mM) is the hydrogen peroxide concentration from which there was no growth after 24 or 96 h.

MX6-1E_04 = details: no growth after 24 or 96 h on agar plates at 45° C.
Procedure: as §9, §10, §11, §12, §13

[5] = tested on: Deinococcus geothermalis M36-7D—21
Procedure: The growth of Deinococcus geothermalis M36-7D—21 was performed in microplates in CMG medium containing Peptone 2 g/L; Yeast Extract 5 g/L; Glucose 55 mM (10 g/L); MOPS acid 40 mM; NH4Cl 20 mM; NaOH 10 mM; KOH 10 mM; CaCl2.2H2O 0.5 μM; Na2SO4.10H2O 0.276 mM; MgCl2.6H2O 0.528 mM; (NH4)6(Mo7)O24.4H2O 3 nM; H3BO3 0.4 μM; CoCl2.6H2O 30 nM; CuSO4.5H2O 10 nM; MnCl2 0.25 μM; ZnSO4.7H2O 10 nM; D-Biotin 1 μg/L; Niacin (nicotinic acid) 1 μg/L; Pyridoxin (pyridoxal HCl ou vitamine B6) 1 μg/L; Thiamin HCl (vitamine B1); FeCl3 20 μM; Sodium Citrate.2H2O 20 μM; K2HPO4 5,7 mM.
The addition of 100 mM hydrogen peroxide was made at TO (begin of the growth) or at the exponential phase.
The growth was monitored by measuring the OD600 nm.

[6] = one hour treatment at room temperature

OO [hydrogen peroxide]
IC: concentration of hydrogen peroxide from which there was no growth after 3 days of incubation (M36-7D_17; M36-7D_17, CMG medium, 3 days): 200 mM
Concentration of hydrogen peroxide in the presence of which the strain is able to grow (M36-7D_17; modified D. geothermalis M36-7D (M36-7D_17)): up to 190 mM
Concentration of hydrogen peroxide in the presence of which the strain is able to grow (M36-7Dwt; D. geothermalis M36-7Dwt): up to 190 mM
IC: concentration of hydrogen peroxide from which there was no growth after 3 days of incubation (M36-7Dwt; M36-7Dwt, 45° C., CMG medium, 3 days): 200 mM
IC: concentration of hydrogen peroxide from which there was no growth after 3 days of incubation (M36-7D_21 [1]; M36-7D_21, CMG medium, 3 days): 200 mM
Concentration of hydrogen peroxide in the presence of which the strain is able to grow (M36-7D_21 [1]; modified D. geothermalis M36-7D (M36-7D_21)): up to 190 mM
Concentration of hydrogen peroxide in the presence of which the strain is able to grow ([2]; D. radiodurans R1): up to 190 mM
IC: concentration of hydrogen peroxide from which there was no growth after 3 days of incubation ([2]; D. radiodurans R1, 30° C., CMG medium, 3 days): 200 mM
IC: concentration of hydrogen peroxide from which there was no growth after 3 days of incubation [3]: 20 mM
IC: concentration of hydrogen peroxide from which there was no growth after 3 days of incubation (Escherichia coli K12): 10 mM
IC: concentration of hydrogen peroxide from which there was no growth after 3 days of incubation (Zymomonas mobilis DSM424): 10 mM
IC: concentration of hydrogen peroxide from which there was no growth after 3 days of incubation (M36-7D_18; M36-7D_18, CMG medium, 3 days): 200 mM
Concentration of hydrogen peroxide in the presence of which the strain is able to grow (M36-7D_18; modified D. geothermalis M36-7D (M36-7D_18)): up to 190 mM
Inhibitory concentration (mM) of hydrogen peroxide (M36-7D_21 [4]; one hour treatment at 45° C.): 200 mM
Inhibitory concentration (mM) of hydrogen peroxide (M36-7D_21 [4]; [6]): >200 mM
Inhibitory concentration (mM) of hydrogen peroxide (MX6-1E_04; one hour treatment at 45° C.): 50 mM
Inhibitory concentration (mM) of hydrogen peroxide (MX6-1E_04; [6]): 100 mM
Effect on growth of M36-7D—21 (OD600 nm) ([5]; 100 mM hydrogen peroxide added at TO (begin of the growth)): did not affect the growth
Effect on growth of M36-7D—21 (OD600 nm) ([5]; 100 mM hydrogen peroxide added at the exponential phase): did not affect the growth
